Experimental data: patent US8975234B2, “Anti-bacterial infection, inflammation, and leukemia composition and use thereof” (priority 2011, dated 2015)
Where two headings read alike, the source gives them in different places.

Assays:
[1] = system: MSSA (Methicillin-susceptible Staphylococcus aureus); assay: Minimum inhibitory concentration (broth microdilution) and FIC index; assay type: cell-based; details: MSSA, MSSA
Method: (§1) A serial of twofold dilution of the tested antibiotics (oxacillin, erythromycin, ampicillin, kanamycin, levofoxacin, vancomycin and doxycycline) was perform by Broth microdilution method to a final concentration of 2-512 μg/mL. The bacterial overnight culture was collected and re-suspended in the Muller-Hilton (M-H) broth. An aliquot of cell suspension (OD600=0.1) was prepared. The bacterial suspensions were plated in 96-well plate and incubated with test antibiotics at 37° C. in a 5% CO2 incubator (Table 1 to Table 4).
(§2) The […], […] and antagonism between two drugs was evaluated by the following formula:
(§3) [formula] The criteria of fractional inhibitory concentration index: […]

MRSA 18271 = assay: as above; assay type: cell-based, Staphylococcus aureus
Method: as §1, §2, §3

MRSA 18631 = assay: as above; assay type: cell-based, Staphylococcus aureus
Method: as §1, §2, §3

MRSA 19615 = assay: as above; assay type: cell-based, Staphylococcus aureus
Method: as §1, §2, §3

[2] = system: standard MRSA strain (ATCC 33591); assay: Minimum inhibitory concentration (broth microdilution); assay type: cell-based, Staphylococcus aureus; details: Table 1
Method: as §1

[3] = Table 3, Tellimagrandin II (40 μg/ml) +
[4] = Table 3, 18271, Tellimagrandin II (40 μg/ml) +
[5] = Table 3, 18631, Tellimagrandin II (40 μg/ml) +
[6] = Table 3, 19615, Tellimagrandin II (40 μg/ml) +

In the case of `CC[C@H]1OC(=O)[C@H](C)[C@@H](O[C@H]2C[C@@](C)(OC)[C@@H](O)[C@H](C)O2)[C@H](C)[C@@H](O[C@@H]2O[C@H](C)C[C@H](N(C)C)[C@H]2O)[C@](C)(O)C[C@@H](C)C(=O)[C@H](C)[C@@H](O)[C@]1(C)O` [Erythromycin], the MIC ([1]; Staphylococcus aureus, Table 1, read-out: Minimum inhibitory concentration) is reported as 128 µg/mL, the FIC [1, 3] is reported as 0.50 and the MIC [1, 3] is reported as 64 µg/mL. The MIC (MRSA 18271; Staphylococcus aureus, MRSA) was 512 µg/mL, the MIC (MRSA 18271; Staphylococcus aureus, MRSA, Table 1, MRSA 18271, read-out: Minimum inhibitory concentration) was over 512 µg/mL and the FIC (MRSA 18271; [4]) was 1.00. The MIC (MRSA 18271; [4]) was 512 µg/mL, the MIC (MRSA 18631; Staphylococcus aureus, MRSA) was 512 µg/mL and the MIC (MRSA 18631; Staphylococcus aureus, MRSA, Table 1, MRSA 18631, read-out: Minimum inhibitory concentration) was over 512 µg/mL. The FIC (MRSA 18631; [5]) was 1.00, the MIC (MRSA 18631; [5]) was 512 µg/mL and the MIC (MRSA 19615; Staphylococcus aureus, MRSA) was 512 µg/mL. For the same compound, the MIC (MRSA 19615; Staphylococcus aureus, MRSA, Table 1, MRSA 19615, read-out: Minimum inhibitory concentration) was over 512 µg/mL, the FIC (MRSA 19615; [6]) was 1.00 and the MIC (MRSA 19615; [6]) was 512 µg/mL. For the same compound, the MIC ([2]; Staphylococcus aureus) was over 512 µg/mL.

In the case of `CC1(C)S[C@@H]2[C@H](NC(=O)[C@H](N)c3ccccc3)C(=O)N2[C@H]1C(=O)O` [Ampicillin], the MIC ([1]; Staphylococcus aureus) is reported as 512 µg/mL, the FIC [1, 3] is reported as 0.50 and the MIC [1, 3] is reported as 256 µg/mL. It also gave an MIC (MRSA 18271; Staphylococcus aureus, MRSA) of 512 µg/mL, an FIC (MRSA 18271; [4]) of 0.031 and an MIC (MRSA 18271; [4]) of 16 µg/mL. The MIC (MRSA 18631; Staphylococcus aureus, MRSA) was 512 µg/mL, the FIC (MRSA 18631; [5]) was 1.00 and the MIC (MRSA 18631; [5]) was 512 µg/mL. It also gave an MIC (MRSA 19615; Staphylococcus aureus, MRSA) of 512 µg/mL, an FIC (MRSA 19615; [6]) of 1.00 and an MIC (MRSA 19615; [6]) of 512 µg/mL.

Penicillin gave a Minimum inhibitory concentration ([1]; Table 1) of over 512 µg/mL, a Minimum inhibitory concentration (MRSA 18271; Table 1, MRSA 18271) of over 512 µg/mL and a Minimum inhibitory concentration (MRSA 18631; Table 1, MRSA 18631) of over 512 µg/mL. It also gave a Minimum inhibitory concentration (MRSA 19615; Table 1, MRSA 19615) of over 512 µg/mL and a Minimum inhibitory concentration [2] of over 512 µg/mL.

`CN[C@H](CC(C)C)C(=O)N[C@H]1C(=O)N[C@@H](CC(N)=O)C(=O)N[C@H]2C(=O)N[C@H]3C(=O)N[C@H](C(=O)N[C@H](C(=O)O)c4cc(O)cc(O)c4-c4cc3ccc4O)[C@H](O)c3ccc(c(Cl)c3)Oc3cc2cc(c3O[C@@H]2O[C@H](CO)[C@@H](O)[C@H](O)[C@H]2O[C@H]2C[C@](C)(N)[C@H](O)[C@H](C)O2)Oc2ccc(cc2Cl)[C@H]1O` [Vancomycin] gave an MIC ([1]; Staphylococcus aureus) of over 2 µg/mL, an MIC [1, 3] of over 2 µg/mL and an MIC (MRSA 18271; Staphylococcus aureus, MRSA) of 4 µg/mL. For the same compound, the FIC (MRSA 18271; [4]) was 1.00, the MIC (MRSA 18271; [4]) was 4 µg/mL and the MIC (MRSA 18631; Staphylococcus aureus, MRSA) was 4 µg/mL. The FIC (MRSA 18631; [5]) was 1.00, the MIC (MRSA 18631; [5]) was 4 µg/mL and the MIC (MRSA 19615; Staphylococcus aureus, MRSA) was 4 µg/mL. For the same compound, the FIC (MRSA 19615; [6]) was 1.00 and the MIC (MRSA 19615; [6]) was 4 µg/mL.
